ChEMBL document CHEMBL4507316 (2021)

Columns and labels:
[1] = target: Serine/threonine-protein kinase PAK 2 (Homo sapiens) (UniProt Q13177); experiment: PAK2 ProQinase selectivity panel; settings: Compound concentration 1.0 uM
[2] = target: Mitogen-activated protein kinase kinase kinase 9 (Homo sapiens) (UniProt P80192); experiment: MAP3K9 ProQinase selectivity panel; settings: Compound concentration 1.0 uM
[3] = test system: Epidermal growth factor receptor (Homo sapiens), P00533 [UNDEFINED MUTATION]; experiment: EGF-R d747-752/P753S ProQinase selectivity panel; settings: Compound concentration 1.0 uM
Epidermal growth factor receptor (Homo sapiens), P00533 [UNDEFINED MUTATION], sequence (P00533 whole entry, looked up, stated change not applied): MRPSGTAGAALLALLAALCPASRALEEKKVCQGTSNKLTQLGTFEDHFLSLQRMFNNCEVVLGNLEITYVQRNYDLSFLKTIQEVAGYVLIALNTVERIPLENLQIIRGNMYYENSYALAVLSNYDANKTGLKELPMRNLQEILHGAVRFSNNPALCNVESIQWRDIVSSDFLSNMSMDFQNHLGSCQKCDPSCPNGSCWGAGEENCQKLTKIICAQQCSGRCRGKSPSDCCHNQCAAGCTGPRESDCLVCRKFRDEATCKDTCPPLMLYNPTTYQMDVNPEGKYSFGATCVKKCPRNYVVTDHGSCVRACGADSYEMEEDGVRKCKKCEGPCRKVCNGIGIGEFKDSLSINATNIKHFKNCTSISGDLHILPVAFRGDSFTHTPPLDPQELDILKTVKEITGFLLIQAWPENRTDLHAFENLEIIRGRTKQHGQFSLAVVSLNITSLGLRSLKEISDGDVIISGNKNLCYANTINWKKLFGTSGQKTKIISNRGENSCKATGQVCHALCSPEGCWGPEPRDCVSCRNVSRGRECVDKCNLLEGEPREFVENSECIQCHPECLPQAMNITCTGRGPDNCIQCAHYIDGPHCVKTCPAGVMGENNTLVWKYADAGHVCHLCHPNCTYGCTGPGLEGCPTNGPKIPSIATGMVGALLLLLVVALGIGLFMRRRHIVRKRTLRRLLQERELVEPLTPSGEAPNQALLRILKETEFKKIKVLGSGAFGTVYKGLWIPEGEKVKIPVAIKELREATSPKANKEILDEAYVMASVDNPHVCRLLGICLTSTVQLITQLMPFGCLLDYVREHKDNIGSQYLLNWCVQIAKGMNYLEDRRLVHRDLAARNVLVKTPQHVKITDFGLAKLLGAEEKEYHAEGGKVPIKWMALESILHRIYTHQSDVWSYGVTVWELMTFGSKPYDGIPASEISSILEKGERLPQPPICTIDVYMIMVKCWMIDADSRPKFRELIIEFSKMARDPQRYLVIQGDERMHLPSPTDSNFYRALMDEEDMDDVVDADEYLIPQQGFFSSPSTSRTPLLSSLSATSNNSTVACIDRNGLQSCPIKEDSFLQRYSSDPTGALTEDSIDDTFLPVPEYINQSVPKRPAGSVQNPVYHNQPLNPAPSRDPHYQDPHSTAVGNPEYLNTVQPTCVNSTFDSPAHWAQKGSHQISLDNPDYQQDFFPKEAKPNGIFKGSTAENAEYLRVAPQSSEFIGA

[4] = target: Serine/threonine-protein kinase pim-1 (Homo sapiens) (UniProt P11309); experiment: PIM1 ProQinase selectivity panel; settings: Compound concentration 1.0 uM
[5] = target: Receptor tyrosine-protein kinase erbB-2 (Homo sapiens) (UniProt P04626); experiment: ERBB2 ProQinase selectivity panel; settings: Compound concentration 1.0 uM
[6] = target: Fibroblast growth factor receptor 4 (Homo sapiens) (UniProt P22455); experiment: FGF-R4 ProQinase selectivity panel; settings: Compound concentration 1.0 uM
[7] = test system: Hepatocyte growth factor receptor (Homo sapiens), P08581 [D1228N]; experiment: MET D1228N ProQinase selectivity panel; settings: Compound concentration 1.0 uM
[8] = target: Sodium-dependent serotonin transporter (Homo sapiens) (UniProt P31645); settings: Compound concentration 10.0 uM
Sodium-dependent serotonin transporter (Homo sapiens), sequence (P31645 whole entry, looked up): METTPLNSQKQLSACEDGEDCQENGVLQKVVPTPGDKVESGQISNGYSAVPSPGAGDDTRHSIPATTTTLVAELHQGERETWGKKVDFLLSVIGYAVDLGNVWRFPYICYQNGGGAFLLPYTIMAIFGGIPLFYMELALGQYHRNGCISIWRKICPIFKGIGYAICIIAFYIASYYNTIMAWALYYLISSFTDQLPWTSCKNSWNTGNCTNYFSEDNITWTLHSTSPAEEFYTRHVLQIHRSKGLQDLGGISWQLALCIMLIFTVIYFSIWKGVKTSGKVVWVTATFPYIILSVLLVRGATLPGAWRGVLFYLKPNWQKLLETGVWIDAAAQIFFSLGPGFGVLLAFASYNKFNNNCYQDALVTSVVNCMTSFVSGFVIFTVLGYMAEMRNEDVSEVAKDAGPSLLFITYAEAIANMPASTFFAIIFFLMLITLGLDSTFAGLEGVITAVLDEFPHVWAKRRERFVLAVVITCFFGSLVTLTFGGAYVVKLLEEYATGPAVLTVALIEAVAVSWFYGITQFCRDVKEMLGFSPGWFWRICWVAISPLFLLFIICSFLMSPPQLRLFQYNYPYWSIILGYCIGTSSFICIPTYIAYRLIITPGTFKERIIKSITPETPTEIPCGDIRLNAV

[9] = target: SRSF protein kinase 1 (Homo sapiens) (UniProt Q96SB4); experiment: SRPK1 ProQinase selectivity panel; settings: Compound concentration 1.0 uM
[10] = target: Aurora kinase A (Homo sapiens) (UniProt O14965); experiment: Aurora-A ProQinase selectivity panel; settings: Compound concentration 1.0 uM
[11] = target: Serine/threonine-protein kinase pim-2 (Homo sapiens) (UniProt Q9P1W9); experiment: PIM2 ProQinase selectivity panel; settings: Compound concentration 1.0 uM
[12] = target: Serine/threonine-protein kinase Nek11 (Homo sapiens) (UniProt Q8NG66); experiment: NEK11 ProQinase selectivity panel; settings: Compound concentration 1.0 uM
Serine/threonine-protein kinase Nek11 (Homo sapiens), sequence (Q8NG66 whole entry): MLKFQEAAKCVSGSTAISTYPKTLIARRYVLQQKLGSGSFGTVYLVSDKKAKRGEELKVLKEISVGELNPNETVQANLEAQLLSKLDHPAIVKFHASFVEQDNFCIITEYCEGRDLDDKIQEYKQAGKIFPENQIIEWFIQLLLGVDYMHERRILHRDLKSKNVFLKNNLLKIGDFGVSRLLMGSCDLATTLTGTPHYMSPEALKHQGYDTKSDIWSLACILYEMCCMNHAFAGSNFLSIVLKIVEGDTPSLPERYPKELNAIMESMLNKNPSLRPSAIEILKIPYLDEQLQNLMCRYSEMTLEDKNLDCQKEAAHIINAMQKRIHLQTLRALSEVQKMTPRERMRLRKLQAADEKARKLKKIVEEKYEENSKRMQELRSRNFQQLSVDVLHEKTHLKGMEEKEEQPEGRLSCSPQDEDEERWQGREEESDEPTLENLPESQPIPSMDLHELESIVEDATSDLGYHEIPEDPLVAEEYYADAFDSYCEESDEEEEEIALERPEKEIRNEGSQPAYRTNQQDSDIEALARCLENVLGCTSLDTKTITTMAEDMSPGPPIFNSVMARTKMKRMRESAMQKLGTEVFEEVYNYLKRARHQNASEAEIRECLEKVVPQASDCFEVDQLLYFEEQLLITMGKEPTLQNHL

[13] = target: MAP kinase-interacting serine/threonine-protein kinase 1 (Homo sapiens) (UniProt Q9BUB5); experiment: MKNK1 ProQinase selectivity panel; settings: Compound concentration 1.0 uM
[14] = target: Alpha-2A adrenergic receptor (Homo sapiens) (UniProt P08913); settings: Compound concentration 10.0 uM
[15] = target: Serine/threonine-protein kinase PAK 5 (Homo sapiens) (UniProt Q9P286); experiment: PAK7 ProQinase selectivity panel; settings: Compound concentration 1.0 uM
[16] = target: Serine/threonine-protein kinase 16 (Homo sapiens) (UniProt O75716); experiment: TSF1 ProQinase selectivity panel; settings: Compound concentration 1.0 uM
[17] = target: Serine/threonine-protein kinase Nek7 (Homo sapiens) (UniProt Q8TDX7); experiment: NEK7 ProQinase selectivity panel; settings: Compound concentration 1.0 uM
[18] = target: Proto-oncogene tyrosine-protein kinase Src (Homo sapiens) (UniProt P12931); experiment: SRC ProQinase selectivity panel; settings: Compound concentration 1.0 uM
[19] = target: Eukaryotic translation initiation factor 2-alpha kinase 3 (Homo sapiens) (UniProt Q9NZJ5); experiment: EIF2AK3 ProQinase selectivity panel; settings: Compound concentration 1.0 uM
[20] = test system: Leucine-rich repeat serine/threonine-protein kinase 2 (Homo sapiens), Q5S007 [R1441C]; experiment: LRRK2 R1441C ProQinase selectivity panel; settings: Compound concentration 1.0 uM
[21] = target: Delta-type opioid receptor (Homo sapiens) (UniProt P41143); settings: Compound concentration 10.0 uM
[22] = target: Sigma non-opioid intracellular receptor 1 (Homo sapiens) (UniProt Q99720); settings: Compound concentration 10.0 uM
[23] = target: Cyclin-dependent kinase 1/cyclin B (Homo sapiens) (UniProt P06493+P14635+Q8WWL7+O95067); experiment: CDK1/CycB1 ProQinase selectivity panel; assay type: protein-complex assay; settings: Compound concentration 1.0 uM
[24] = test system: Platelet-derived growth factor receptor alpha (Homo sapiens), P16234 [T674I]; experiment: PDGFR-alpha T674I ProQinase selectivity panel; settings: Compound concentration 1.0 uM
[25] = target: Dual specificity mitogen-activated protein kinase kinase 2 (Homo sapiens) (UniProt P36507); experiment: MEK2 ProQinase selectivity panel; settings: Compound concentration 1.0 uM
[26] = target: G protein-coupled receptor kinase 5 (Homo sapiens) (UniProt P34947); experiment: GRK5 ProQinase selectivity panel; settings: Compound concentration 1.0 uM
[27] = target: Eukaryotic elongation factor 2 kinase (Homo sapiens) (UniProt O00418); experiment: EEF2K ProQinase selectivity panel; settings: Compound concentration 1.0 uM
[28] = target: Mitogen-activated protein kinase 3 (Homo sapiens) (UniProt P27361); experiment: ERK1 ProQinase selectivity panel; settings: Compound concentration 1.0 uM
[29] = target: G protein-coupled receptor kinase 4 (Homo sapiens) (UniProt P32298); experiment: GRK4 ProQinase selectivity panel; settings: Compound concentration 1.0 uM
[30] = target: Serine/threonine-protein kinase Sgk2 (Homo sapiens) (UniProt Q9HBY8); experiment: SGK2 ProQinase selectivity panel; settings: Compound concentration 1.0 uM
[31] = target: Serine/threonine-protein kinase MRCK beta (Homo sapiens) (UniProt Q9Y5S2); experiment: CDC42BPB ProQinase selectivity panel; settings: Compound concentration 1.0 uM
[32] = target: Ribosomal protein S6 kinase alpha-5 (Homo sapiens) (UniProt O75582); experiment: RPS6KA5 ProQinase selectivity panel; settings: Compound concentration 1.0 uM
Ribosomal protein S6 kinase alpha-5 (Homo sapiens), sequence (O75582 whole entry, looked up): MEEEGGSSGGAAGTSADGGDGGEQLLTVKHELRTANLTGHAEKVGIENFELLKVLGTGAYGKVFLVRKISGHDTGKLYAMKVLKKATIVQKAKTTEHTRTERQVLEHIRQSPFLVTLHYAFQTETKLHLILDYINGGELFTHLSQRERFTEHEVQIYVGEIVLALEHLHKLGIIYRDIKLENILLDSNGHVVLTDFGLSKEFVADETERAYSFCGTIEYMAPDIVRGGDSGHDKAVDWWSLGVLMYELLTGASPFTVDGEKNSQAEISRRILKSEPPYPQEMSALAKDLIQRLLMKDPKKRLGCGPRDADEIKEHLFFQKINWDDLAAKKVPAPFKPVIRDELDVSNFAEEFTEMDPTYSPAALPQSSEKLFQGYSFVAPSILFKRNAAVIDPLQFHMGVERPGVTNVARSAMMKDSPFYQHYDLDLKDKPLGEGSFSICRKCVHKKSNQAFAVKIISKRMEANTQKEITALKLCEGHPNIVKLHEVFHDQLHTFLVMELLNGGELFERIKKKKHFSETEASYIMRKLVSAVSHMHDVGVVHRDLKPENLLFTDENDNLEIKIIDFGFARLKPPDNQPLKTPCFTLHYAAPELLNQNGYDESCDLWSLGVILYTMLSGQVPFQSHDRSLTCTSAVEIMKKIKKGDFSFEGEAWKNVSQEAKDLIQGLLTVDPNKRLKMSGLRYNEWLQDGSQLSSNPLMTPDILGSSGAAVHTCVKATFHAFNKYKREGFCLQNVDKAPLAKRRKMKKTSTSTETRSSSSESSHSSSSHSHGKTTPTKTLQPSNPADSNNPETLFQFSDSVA

[33] = target: 5-hydroxytryptamine receptor 5A (Homo sapiens) (UniProt P47898); settings: Compound concentration 10.0 uM
[34] = test system: Epidermal growth factor receptor (Homo sapiens), P00533 [UNDEFINED MUTATION]; experiment: EGF-R d752-759 ProQinase selectivity panel; settings: Compound concentration 1.0 uM
[35] = target: Alpha-2B adrenergic receptor (Homo sapiens) (UniProt P18089); settings: Compound concentration 10.0 uM
[36] = test system: Platelet-derived growth factor receptor alpha (Homo sapiens), P16234 [V561D]; experiment: PDGFR-alpha V561D ProQinase selectivity panel; settings: Compound concentration 1.0 uM
[37] = target: Tyrosine-protein kinase Fer (Homo sapiens) (UniProt P16591); experiment: FER ProQinase selectivity panel; settings: Compound concentration 1.0 uM
[38] = target: Serine/threonine-protein kinase VRK1 (Homo sapiens) (UniProt Q99986); experiment: VRK1 ProQinase selectivity panel; settings: Compound concentration 1.0 uM
[39] = target: SRSF protein kinase 2 (Homo sapiens) (UniProt P78362); experiment: SRPK2 ProQinase selectivity panel; settings: Compound concentration 1.0 uM
[40] = target: 5-hydroxytryptamine receptor 1B (Homo sapiens) (UniProt P28222); settings: Compound concentration 10.0 uM
[41] = target: Casein kinase I isoform epsilon (Homo sapiens) (UniProt P49674); experiment: CK1-epsilon ProQinase selectivity panel; settings: Compound concentration 1.0 uM
Casein kinase I isoform epsilon (Homo sapiens), sequence (P49674 whole entry, looked up, canonical isoform): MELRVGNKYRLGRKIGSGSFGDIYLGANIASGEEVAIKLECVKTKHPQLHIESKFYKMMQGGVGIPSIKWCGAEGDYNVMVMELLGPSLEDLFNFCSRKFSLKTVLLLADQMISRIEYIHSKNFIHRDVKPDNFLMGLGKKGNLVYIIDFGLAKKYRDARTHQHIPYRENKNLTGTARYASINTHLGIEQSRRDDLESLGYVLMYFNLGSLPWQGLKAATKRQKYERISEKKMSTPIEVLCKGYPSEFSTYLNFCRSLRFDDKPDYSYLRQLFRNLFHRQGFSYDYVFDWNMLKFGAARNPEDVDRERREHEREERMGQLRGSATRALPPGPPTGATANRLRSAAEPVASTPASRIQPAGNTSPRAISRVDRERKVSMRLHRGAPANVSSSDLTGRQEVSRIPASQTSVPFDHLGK

[42] = target: Megakaryocyte-associated tyrosine-protein kinase (Homo sapiens) (UniProt P42679); experiment: MATK ProQinase selectivity panel; settings: Compound concentration 1.0 uM
[43] = target: 5-hydroxytryptamine receptor 1D (Homo sapiens) (UniProt P28221); settings: Compound concentration 10.0 uM
[44] = target: Rhodopsin kinase GRK7 (Homo sapiens) (UniProt Q8WTQ7); experiment: GRK7 ProQinase selectivity panel; settings: Compound concentration 1.0 uM
[45] = test system: Tyrosine-protein kinase ABL1 (Homo sapiens), P00519 [Q252H]; experiment: ABL1 Q252H ProQinase selectivity panel; settings: Compound concentration 1.0 uM
[46] = target: Focal adhesion kinase 1 (Homo sapiens) (UniProt Q05397); experiment: FAK ProQinase selectivity panel; settings: Compound concentration 1.0 uM
[47] = target: Rho-associated protein kinase 1 (Homo sapiens) (UniProt Q13464); experiment: ROCK1 ProQinase selectivity panel; settings: Compound concentration 1.0 uM
Rho-associated protein kinase 1 (Homo sapiens), sequence (Q13464 2-1354 limits assumed): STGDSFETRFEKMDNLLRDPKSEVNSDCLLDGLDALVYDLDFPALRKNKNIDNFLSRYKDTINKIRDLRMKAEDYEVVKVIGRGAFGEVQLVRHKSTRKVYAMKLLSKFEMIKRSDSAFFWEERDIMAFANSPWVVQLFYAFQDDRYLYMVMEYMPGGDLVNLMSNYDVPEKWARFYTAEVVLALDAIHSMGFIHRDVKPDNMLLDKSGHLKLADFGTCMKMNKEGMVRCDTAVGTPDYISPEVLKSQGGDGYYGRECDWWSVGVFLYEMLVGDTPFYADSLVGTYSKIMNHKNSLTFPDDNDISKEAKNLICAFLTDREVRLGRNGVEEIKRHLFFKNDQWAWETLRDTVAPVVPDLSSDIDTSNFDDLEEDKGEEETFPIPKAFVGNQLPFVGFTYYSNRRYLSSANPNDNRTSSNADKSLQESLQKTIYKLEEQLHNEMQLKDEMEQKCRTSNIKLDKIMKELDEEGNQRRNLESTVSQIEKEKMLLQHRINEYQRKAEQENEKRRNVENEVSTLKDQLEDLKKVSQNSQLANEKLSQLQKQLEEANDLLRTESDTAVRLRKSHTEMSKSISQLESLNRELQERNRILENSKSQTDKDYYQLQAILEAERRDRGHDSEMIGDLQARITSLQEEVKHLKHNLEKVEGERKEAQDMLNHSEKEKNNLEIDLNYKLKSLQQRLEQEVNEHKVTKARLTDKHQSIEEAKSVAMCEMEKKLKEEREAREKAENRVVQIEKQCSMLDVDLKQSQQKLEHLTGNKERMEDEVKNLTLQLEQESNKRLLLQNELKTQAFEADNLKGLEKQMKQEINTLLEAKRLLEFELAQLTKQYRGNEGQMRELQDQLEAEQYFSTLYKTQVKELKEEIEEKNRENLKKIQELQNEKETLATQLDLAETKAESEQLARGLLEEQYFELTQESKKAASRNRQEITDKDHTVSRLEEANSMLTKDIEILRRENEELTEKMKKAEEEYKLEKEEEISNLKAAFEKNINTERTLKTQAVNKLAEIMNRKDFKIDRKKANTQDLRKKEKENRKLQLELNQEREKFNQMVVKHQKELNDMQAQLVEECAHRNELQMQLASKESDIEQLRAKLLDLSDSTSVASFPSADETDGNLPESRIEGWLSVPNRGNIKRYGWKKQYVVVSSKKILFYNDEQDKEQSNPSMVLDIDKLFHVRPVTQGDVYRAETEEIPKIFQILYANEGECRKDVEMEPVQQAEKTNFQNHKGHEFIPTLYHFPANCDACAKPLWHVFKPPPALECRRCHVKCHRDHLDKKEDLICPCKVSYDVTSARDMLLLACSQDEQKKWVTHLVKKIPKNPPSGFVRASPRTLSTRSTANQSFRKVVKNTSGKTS

[48] = target: Serine/threonine-protein kinase Nek2 (Homo sapiens) (UniProt P51955); experiment: NEK2 ProQinase selectivity panel; settings: Compound concentration 1.0 uM
[49] = target: Activin receptor type-1-like (Homo sapiens) (UniProt P37023); experiment: ACV-RL1 ProQinase selectivity panel; settings: Compound concentration 1.0 uM

O=C1c2ccc(Nc3ccc(F)cc3F)cc2CCc2ccc(OC[C@H](O)CO)cc21 [Skepinone-L]
inactive: % Residual activity with Skepinone-L [1] 83% | % Residual activity with Skepinone-L [2] 90% | % Residual activity with Skepinone-L [3] 93% | % Residual activity with Skepinone-L [4] 105% | % Residual activity with Skepinone-L [5] 91% | % Residual activity with Skepinone-L [6] 103% | % Residual activity with Skepinone-L [7] 95% | inhibition [8] 20.7% | % Residual activity with Skepinone-L [9] 100% | % Residual activity with Skepinone-L [10] 99% | % Residual activity with Skepinone-L [11] 97% | % Residual activity with Skepinone-L [12] 113% | % Residual activity with Skepinone-L [13] 69% | inhibition [14] 39.6% | % Residual activity with Skepinone-L [15] 87% | % Residual activity with Skepinone-L [16] 94% | % Residual activity with Skepinone-L [17] 83% | % Residual activity with Skepinone-L [18] 119% | % Residual activity with Skepinone-L [19] 95% | % Residual activity with Skepinone-L [20] 89% | inhibition [21] 10.3% | inhibition [22] 48.5% | % Residual activity with Skepinone-L [23] 83% | % Residual activity with Skepinone-L [24] 97% | % Residual activity with Skepinone-L [25] 99% | % Residual activity with Skepinone-L [26] 121% | % Residual activity with Skepinone-L [27] 88% | % Residual activity with Skepinone-L [28] 99% | % Residual activity with Skepinone-L [29] 100% | % Residual activity with Skepinone-L [30] 89% | % Residual activity with Skepinone-L [31] 83% | % Residual activity with Skepinone-L [32] 77% | inhibition [33] 13.8% | % Residual activity with Skepinone-L [34] 83% | inhibition [35] 4.37% | % Residual activity with Skepinone-L [36] 91% | % Residual activity with Skepinone-L [37] 101% | % Residual activity with Skepinone-L [38] 88% | % Residual activity with Skepinone-L [39] 101% | inhibition [40] 15.2% | % Residual activity with Skepinone-L [41] 86% | % Residual activity with Skepinone-L [42] 111% | inhibition [43] 23.8% | % Residual activity with Skepinone-L [44] 107% | % Residual activity with Skepinone-L [45] 95% | % Residual activity with Skepinone-L [46] 113% | % Residual activity with Skepinone-L [47] 97% | % Residual activity with Skepinone-L [48] 85% | % Residual activity with Skepinone-L [49] 105%
